Read-outs that look alike come from different tables or passages of the source.
Experiments:
apple leaf cuticles [1] = assay: Penetration of Flufenacet through isolated apple leaf cuticles in the presence of test substances; settings: for Mean penetration for Flufenacet after time: Flufenacet 0.75 g/L in spray liquid, 10° C./61% rel. air humidity
Excerpt: (§1) Surfactants can affect the absorption of (active) ingredients through membranes such as skin, films or the plant cuticle. As a “finite-dose” application, it is known for the single administration or application of a solution, cream, gel etc. to a membrane that the absorption of active ingredient can be influenced by some additives such as surfactants even after wetting.
The principle of the method has been published and described in detail e.g. in WO-A-2005/194844 or WO2017211572 A1). The leaf cuticles were enzymatically isolated in the manner described in the literature from apple leaves of orchard trees in a commercial stone fruit growing facility near Frankfurt am Main in 2017. The stomata-free cuticles were first dried under air and then installed into stainless steel diffusion cells. After application to the original upper side of the leaf and evaporation of the test liquid, i.e. of the spray liquids of the active ingredients with or without the inventive substances or comparative compositions, the diffusion cells were transferred into thermostated blocks and charged with aqueous liquid. The water used to make up the aqueous test liquids was local tap water (of known composition). At regular intervals, aliquot samples were taken and the proportion of active ingredient penetrated was determined by HPLC or alternatively by radio-chemical method where radio-labelled active ingredient was used as tracer to determine the concentration. During the experiment, the temperature in the system (block, diffusion cells, liquids, etc.) and the air humidity above the spray deposit on the cuticle were controlled. […] The analytical determination by means of HPLC (1290 Infinity, Agilent) was effected thereafter with a Kinetex column 30×2, 1 mm, 2.6μ C18 100 A (Phenomenex), taking a 20 μL aliquot as injection volume at the specified times. In each case, the geometric mean values of the penetration for intact membranes at the mean measurement times are given.

apple leaf cuticles [2] = settings: for Mean penetration for Benzyladenine after time: Benzyladenine 0.1 g/L in spray liquid
Excerpt: as §1
The principle of the method has been published and described in detail e.g. in WO-A-2005/194844 or WO2017211572 A1). The leaf cuticles were enzymatically isolated in the manner described in the literature from apple leaves of orchard trees in a commercial stone fruit growing facility near Frankfurt am Main in 2017. The stomata-free cuticles were first dried under air and then installed into stainless steel diffusion cells. After application to the original upper side of the leaf and evaporation of the test liquid, i.e. of the spray liquids of the active ingredients with or without the inventive substances or comparative compositions, the diffusion cells were transferred into thermostated blocks and charged with aqueous liquid. The water used to make up the aqueous test liquids was local tap water (of known composition). At regular intervals, aliquot samples were taken and the proportion of active ingredient penetrated was determined by HPLC or alternatively by radio-chemical method where radio-labelled active ingredient was used as tracer to determine the concentration. During the experiment, the temperature in the system (block, diffusion cells, liquids, etc.) and the air humidity above the spray deposit on the cuticle were controlled. In the experiment, relative air humidity was constant throughout at 56% relative air humidity (air over supersaturated calcium nitrate) at a constant 10° C. or 25° C. The analytical determination by means of HPLC (1290 Infinity, Agilent) was effected thereafter with a Kinetex column 30×2, 1 mm, 2.6μ C18 100 A (Phenomenex), taking a 20 μL aliquot as injection volume at the specified times. In each case, the geometric mean values of the penetration for intact membranes at the mean measurement times are given.

Compound: CCCCCCCCC(=O)OCCOCCOCCOCCOCCOCCOC [A1, Pelargonic acid 6 EO ester methyl ether]
- Mean penetration for Flufenacet after time (apple leaf cuticles [1]; test substance 1.0 g/L, 1 day): 10.7%
- Mean penetration for Flufenacet after time (apple leaf cuticles [1]; test substance 1.0 g/L, 2 days): 16.9%
- Mean penetration for Flufenacet after time (apple leaf cuticles [1]; test substance 10 g/L, 1 day): 18.2%
- Mean penetration for Flufenacet after time (apple leaf cuticles [1]; test substance 10 g/L, 2 days): 28.0%
- uptake of the active ingredient (Flufenacet), in words (apple leaf cuticles [1]; summary of Table 4, compared to the commercial formulation): strongly increases the uptake
- Mean penetration for Benzyladenine after time (apple leaf cuticles [2]; test substance 0.3 g/L, 1 day): 4.2%
- Mean penetration for Benzyladenine after time (apple leaf cuticles [2]; test substance 0.3 g/L, 2 days): 4.5%
- Mean penetration for Benzyladenine after time (apple leaf cuticles [2]; test substance 0.8 g/L, 1 day): 9.7%
- Mean penetration for Benzyladenine after time (apple leaf cuticles [2]; test substance 0.8 g/L, 2 days): 10.6%
- Mean penetration for Benzyladenine after time (apple leaf cuticles [2]; test substance 1.5 g/L, 1 day): 17.2%
- Mean penetration for Benzyladenine after time (apple leaf cuticles [2]; test substance 1.5 g/L, 2 days): 17.9%
- Mean penetration for Benzyladenine after time (apple leaf cuticles [2]; test substance 3.0 g/L, 1 day): 17.9%
- Mean penetration for Benzyladenine after time (apple leaf cuticles [2]; test substance 3.0 g/L, 2 days): 18.6%
- uptake of the agrochemical active (Benzyladenine), in words (apple leaf cuticles [2]; summary of Table 10): strongly increases the uptake
